Measurements as given in US10723699B2 (Hyundai Pharm Co., Ltd., priority 2015, dated 2020).
Entries after “also recorded” stand apart in the source; their conditions may differ. Read-outs that look alike come from different tables or passages of the source.

Columns and labels:
[1] = biological target: T1, G protein-coupled receptor 119 (GPR-119) (Mesocricetus auratus, UniProt A0A1U8CD06); assay: cAMP activity in HIT-T15 cells (cAMP dynamic kit, FRET); type: cell-based, hamster
T1 construct: hamster-derived β-cells containing G protein-coupled receptor 119 (GPR-119), HIT-T15 cells; host or cells: HIT-T15 (hamster pancreatic β-cells)
T1 sequence (A0A1U8CD06 1-334): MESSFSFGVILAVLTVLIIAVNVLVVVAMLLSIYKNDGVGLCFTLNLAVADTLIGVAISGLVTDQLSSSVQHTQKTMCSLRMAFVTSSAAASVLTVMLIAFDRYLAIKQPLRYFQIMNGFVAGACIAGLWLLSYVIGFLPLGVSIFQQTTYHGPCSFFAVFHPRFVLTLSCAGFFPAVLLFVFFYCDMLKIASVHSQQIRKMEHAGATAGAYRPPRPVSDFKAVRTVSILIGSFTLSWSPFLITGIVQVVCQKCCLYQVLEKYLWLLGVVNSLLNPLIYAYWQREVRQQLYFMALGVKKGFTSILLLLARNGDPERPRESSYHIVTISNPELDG
Procedure, shortened: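 Hamster HIT-T15 cells (60,000/well) were treated next day with compound at six concentrations, 0.0032–10 μM, for 1 h at 37° C. Cells were then lysed and cAMP measured by competitive HTRF immunoassay (D2-cAMP, cryptate anti-cAMP). Activity was derived as the change in FRET signal relative to DMSO.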

CYP1A2 = biological target: T2, CYP1A2 (Homo sapiens, UniProt P05177); assay: CYP inhibition assay (BD GENTEST kit); type: in vitro ADME; conditions: for inhibition at 15 min, 10 µM: human, CYP1A2 enzyme/substrate mixture of BD GENTEST kit, pH 7.4, 10 μM, read-out: CYP inhibition (% at 10 μM) 1A2
T2 construct: purchased BD GENTEST 459100
T2 sequence (P05177 1-516): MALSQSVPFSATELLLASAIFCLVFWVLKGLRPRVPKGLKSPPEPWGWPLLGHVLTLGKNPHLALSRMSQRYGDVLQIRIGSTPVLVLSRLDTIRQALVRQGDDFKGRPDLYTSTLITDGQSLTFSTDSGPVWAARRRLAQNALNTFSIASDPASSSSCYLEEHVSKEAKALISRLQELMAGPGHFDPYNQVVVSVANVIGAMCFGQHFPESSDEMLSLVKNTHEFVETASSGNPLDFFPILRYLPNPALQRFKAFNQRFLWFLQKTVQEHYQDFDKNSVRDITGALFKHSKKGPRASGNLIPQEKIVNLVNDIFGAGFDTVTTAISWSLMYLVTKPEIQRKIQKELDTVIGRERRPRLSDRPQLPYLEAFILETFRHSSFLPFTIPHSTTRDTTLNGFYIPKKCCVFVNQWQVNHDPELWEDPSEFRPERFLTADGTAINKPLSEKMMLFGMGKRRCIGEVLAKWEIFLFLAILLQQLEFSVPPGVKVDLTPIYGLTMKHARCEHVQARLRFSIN
Source text: (§1) CYP enzymes play a major role in the metabolism of drugs. Depending on the inhibition activity of the CYP enzymes, the dose of the drugs and toxicity due to the co-administration of other drugs can be predicted. Therefore, we have measured the inhibitory activity for CYP3A4, CYP2C9, CYP1A2, CYP2D6 and CYP2C19 enzymes present in the body using the compounds of the present invention. Invitrogen P2862 kit was used for CYP2D6 inhibition assay, and BD GENTEST (459100, 459300, 459400, 459500) kits were used for CYP1A2, CYP2C9, CYP2C19 and CYP3A4 inhibition assay. In case of Invitrogen kit, the test materials were diluted in distilled water into 2.5× of the final test concentration.
(§2) In case of BD GENTEST kit, the test materials were diluted in acetonitrile into 50× of the final test concentration. NADPH-cofactor mixture containing cofactor, G6PDH and control protein was prepared in distilled water as per manufacturer's instruction. 4 μl of 50× test materials and 96 μl of NADPH-cofactor mixture were mixed in U-bottom 96-well plate, and the resulting mixture were pre-incubated at 37° C. for 10 minutes. Predetermined concentrations of enzyme/substrate mixture were prepared in distilled water using buffer (0.5M potassium phosphate, pH 7.4) and each of CYP450 enzyme/substrate mixture provided in the kit for the types of CYP450. To the pre-incubated plate, 100 μl of enzyme/substrate mixture was added, and then incubated at 37° C. for 15 minutes (CYP1A2), 30 minutes (CYP3A4 and CYP2C19) or 1.5 hours (CYP2C9). After completion of the reaction, the reactants were transferred to the white plates, and fluorescent values were measured using a micro-plate reader (Excitation and absorption wavelengths of CYP1A2 and CYP2C19 were 410 nm and 460 nm, respectively; and excitation and absorption wavelengths of CYP2C9 and CYP3A4 were 409 nm and 530 nm, respectively).
(§3) The measured values were converted into the inhibition percent of the test materials as compared to the value of the untreated control, and the results were summarized in Table 5.

CYP2C19 = biological target: T3, CYP2C19 (Homo sapiens, UniProt P33261); assay: CYP inhibition assay (BD GENTEST kit); type: in vitro ADME; conditions: human, CYP2C19 enzyme/substrate mixture of BD GENTEST kit, pH 7.4, 10 μM; read-out: CYP inhibition (% at 10 μM) 2C19
T3 construct: purchased BD GENTEST 459400
Source text: as §1, §2, §3

CYP2C9 = biological target: T4, CYP2C9 (Homo sapiens, UniProt P11712); assay: CYP inhibition assay (BD GENTEST kit); type: in vitro ADME; conditions: for inhibition at 1.5 h, 10 µM: human, CYP2C9 enzyme/substrate mixture of BD GENTEST kit, pH 7.4, 10 μM, read-out: CYP inhibition (% at 10 μM) 2C9
T4 construct: purchased BD GENTEST 459300
Source text: as §1, §2, §3

CYP3A4 = biological target: T5, CYP3A4 (Homo sapiens, UniProt P08684); assay: CYP inhibition assay (BD GENTEST kit); type: in vitro ADME; conditions: human, CYP3A4 enzyme/substrate mixture of BD GENTEST kit, pH 7.4, 10 μM; read-out: CYP inhibition (% at 10 μM) 3A4
T5 construct: purchased BD GENTEST 459500
Source text: as §1, §2, §3

CYP2D6 = biological target: T6, CYP2D6 (Homo sapiens, UniProt P10635); assay: CYP inhibition assay (Invitrogen P2862 kit); type: in vitro ADME; conditions: for inhibition at 1 h, 10 µM: human, CYP2D6 P450 BACULOSOMES (Invitrogen P2862 kit), probe Vivid CYP450 substrate, read-out: CYP inhibition (% at 10 μM) 2D6
T6 construct: purchased Invitrogen P2862
Source text: as §1
P450 BACULOSOMES® reagent and regeneration device (100×) provided by the Invitrogen kit were diluted in the Vivid® reaction buffer (2×) into the appropriate concentration for the type of CYP450. After mixing 80 μl of the 2.5× test material and 100 μl of the mixture of the diluted P450 BACULOSOMES® reagent in U-bottom 96-well plate, the resulting mixture was pre-incubated for 20 minutes. Vivid® CYP450 substrate and NADP+ (100×) were diluted in the Vivid® CYP450 reaction buffer (2×) into the appropriate concentration for the types of CYP450 and the substrates. After completion of the pre-incubation, 20/l of the substrate-NADP (nicotinamide adenine dinucleotide phosphate) mixture was added, and then incubated for 1 hour. After completion of the reaction, the reactants were transferred to the white plates, and fluorescence values were measured using a micro-plate reader (Excitation and absorption wavelengths of CYP2D6 were 400 nm and 502 nm, respectively).
as §3

[2] = tested on: male C57BL/6J (C57 black 6) rats in a high-fat diet model; assay: Oral glucose tolerance test (OGTT), high-fat diet model; type: in vivo; conditions: 20 mg/kg oral, Table 3
Description: To evaluate in vivo effective effects of the cyclohexene derivatives according to the present invention, experiments were carried out, as follows.
Specifically, male C57BL/6J (C57 black 6) […] (8 to 10 weeks old) in a high-fat diet model were acclimated for at least 7 days, and only healthy rat populations were selected and subjected to an oral glucose tolerance test (OGTT). The rats were fasted for 12 to 15 hours, and then randomly divided into groups with five rats per group. Thereafter, each of the compounds of Examples 1, 14, 48, 69, 80, 118, 139, 147, 148, 169, 190, 199, 200, 204, 227, 277, 290, 291, 442, 443, and 461 to 466, and Comparative Examples 1 and 2 according to the present invention was administered to the rats at a dose of 20 mg/kg. In this case, a vehicle (0.5%, carboxymethyl cellulose (CMC)) was administered as an untreated group, and the dose of the compound administered together with the vehicle was orally administered at 10 ml/kg. After 30 minutes of administration, glucose (2 g/kg) was orally administered at a dose of 10 ml/kg. A blood glucose level was measured using an Accu-Chek Active Strip (Rosche Diagnostic Co.). In this case, the glucose level in blood collected via caudal venipuncture was measured at time points of −30, 0, 20, 40, 60, and 120 minutes after glucose administration. […]

[3] = tested on: diet-induced obesity (DIO) rat model; assay: Changes in weights in diet-induced obesity (DIO) rat model, 4-week administration; type: in vivo, Sprague Dawley (SD) rats; conditions: 300 mg/kg oral, 4 weeks
Description: To simultaneously evaluate both the weight-loss and hypoglycemic effects of the cyclohexene derivative according to the present invention, experiments were carried out, as follows.
(§4) Specifically, male Sprague Dawley (SD) rats (approximately 4 weeks old) in a diet-induced obesity model were fed with a high-fat diet (Lab. Diet Co.) for approximately 10 weeks to induce high-fat diet-induced obesity (DIO). The rats undergoing the high-fat diet were randomly selected, and divided into groups (n=8) for respective administrations. The compounds of Comparative Examples 3 and 4 and Examples 48 and 119 were administered to the divided DIO rats each group for 4 weeks.
(§5) The weights of the DIO rats were measured twice a week during a period of administration of 4 weeks to record a change in the weights. At the end of the 4-week period of administration, a hypoglycemic effect was evaluated using an oral glucose tolerance test (OGTT), as follows.

[4] = tested on: diet-induced obesity (DIO) rat model; assay: OGTT at the end of the 4-week administration in DIO rat model; type: in vivo, Sprague Dawley (SD) rats; conditions: 300 mg/kg oral; glucose 2 g/kg 30 minutes later; after 4-week administration
Description: as §4, §5
Specifically, each of the compounds of Comparative Example 3 (300 mg/kg) and Examples 48 and 119 (10, 20, 50 mg/kg) was administered, and 2 g/kg of glucose was orally administered after 30 minutes of the administration. A blood glucose level was determined using an Accu-Chek Active Strip (Roche diagnostic Co.). In this case, the glucose level in blood collected via caudal venipuncture was measured at time points of −30, 0, 20, 40, 60, and 120 minutes after glucose administration. […]

T5 sequence (P08684 whole entry): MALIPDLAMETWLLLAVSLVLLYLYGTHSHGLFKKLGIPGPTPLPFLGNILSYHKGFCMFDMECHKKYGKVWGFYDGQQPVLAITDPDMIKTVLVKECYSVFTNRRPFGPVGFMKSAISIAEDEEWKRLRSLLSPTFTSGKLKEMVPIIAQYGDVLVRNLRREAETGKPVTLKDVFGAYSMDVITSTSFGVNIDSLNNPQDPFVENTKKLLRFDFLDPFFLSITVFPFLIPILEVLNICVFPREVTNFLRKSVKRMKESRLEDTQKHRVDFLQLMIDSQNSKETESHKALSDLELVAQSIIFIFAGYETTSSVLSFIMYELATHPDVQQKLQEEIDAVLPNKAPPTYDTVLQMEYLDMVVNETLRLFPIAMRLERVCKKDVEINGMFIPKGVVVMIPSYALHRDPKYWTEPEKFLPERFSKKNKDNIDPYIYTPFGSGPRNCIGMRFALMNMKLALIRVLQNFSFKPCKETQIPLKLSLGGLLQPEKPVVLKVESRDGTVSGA
T4 sequence (P11712 whole entry): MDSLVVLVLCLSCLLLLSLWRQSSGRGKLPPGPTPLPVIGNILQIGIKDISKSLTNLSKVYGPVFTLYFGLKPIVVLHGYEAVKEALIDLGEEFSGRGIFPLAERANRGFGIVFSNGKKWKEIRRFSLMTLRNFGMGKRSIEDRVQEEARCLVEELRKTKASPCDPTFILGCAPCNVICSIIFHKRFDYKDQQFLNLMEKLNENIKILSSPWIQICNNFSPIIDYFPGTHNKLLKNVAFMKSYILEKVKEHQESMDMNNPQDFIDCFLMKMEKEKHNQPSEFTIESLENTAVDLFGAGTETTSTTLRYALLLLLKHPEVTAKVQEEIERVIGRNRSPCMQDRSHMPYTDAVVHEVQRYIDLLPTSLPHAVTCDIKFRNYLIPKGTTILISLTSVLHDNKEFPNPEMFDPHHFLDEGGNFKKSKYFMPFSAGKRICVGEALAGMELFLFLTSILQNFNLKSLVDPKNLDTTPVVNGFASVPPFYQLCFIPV
T6 sequence (P10635 whole entry): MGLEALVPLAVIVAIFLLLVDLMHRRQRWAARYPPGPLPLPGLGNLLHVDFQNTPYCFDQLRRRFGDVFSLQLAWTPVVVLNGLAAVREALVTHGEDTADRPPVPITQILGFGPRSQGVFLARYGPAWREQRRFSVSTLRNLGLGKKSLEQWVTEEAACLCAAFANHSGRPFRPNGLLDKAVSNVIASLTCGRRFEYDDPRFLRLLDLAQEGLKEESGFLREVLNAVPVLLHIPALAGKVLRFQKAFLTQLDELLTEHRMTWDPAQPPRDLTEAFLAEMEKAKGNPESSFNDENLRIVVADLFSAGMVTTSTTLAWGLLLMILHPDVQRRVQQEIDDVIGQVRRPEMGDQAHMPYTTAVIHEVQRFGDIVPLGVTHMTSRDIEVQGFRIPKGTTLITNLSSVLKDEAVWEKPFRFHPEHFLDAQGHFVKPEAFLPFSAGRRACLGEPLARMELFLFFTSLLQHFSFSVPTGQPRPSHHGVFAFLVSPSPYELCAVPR
T3 sequence (P33261 whole entry): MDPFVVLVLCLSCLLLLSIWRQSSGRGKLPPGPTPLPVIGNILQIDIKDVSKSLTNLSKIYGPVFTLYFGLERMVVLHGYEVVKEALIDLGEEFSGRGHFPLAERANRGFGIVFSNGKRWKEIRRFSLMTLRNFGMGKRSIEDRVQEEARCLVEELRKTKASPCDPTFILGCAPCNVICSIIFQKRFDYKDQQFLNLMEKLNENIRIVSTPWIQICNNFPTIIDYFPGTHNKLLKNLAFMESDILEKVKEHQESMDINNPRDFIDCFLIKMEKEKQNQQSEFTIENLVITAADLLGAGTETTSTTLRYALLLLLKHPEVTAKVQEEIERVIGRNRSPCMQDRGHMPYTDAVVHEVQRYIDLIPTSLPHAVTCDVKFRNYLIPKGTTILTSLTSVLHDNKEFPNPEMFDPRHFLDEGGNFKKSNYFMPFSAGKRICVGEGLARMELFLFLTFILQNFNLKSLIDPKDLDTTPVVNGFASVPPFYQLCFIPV

CCc1cnc(N2CCC(COc3ccc(C4=CCC(C(=O)N5CCC[C@@H]5CO)CC4)cc3)CC2)nc1 (single isomer, unassigned; (+)) [Example 290]
EC50 ([1]; 1 hour at 37° C., six concentrations 0.0032 to 10 μM, read-out: EC50): 3.8 nM | EC50 ([1]; Table 2, read-out: EC50 value): ≤ 50 nM | CYP inhibition (% at 10 μM) 1A2 (CYP1A2; 10 μM): 3.82% | inhibition at 30 min, 10 µM (CYP2C19): 44.9% | CYP inhibition (% at 10 μM) 2C9 (CYP2C9; 10 μM): 23.97% | inhibition at 30 min, 10 µM (CYP3A4): 33.1% | CYP inhibition (% at 10 μM) 2D6 (CYP2D6; 10 µM): 48.97%

CC(C)c1noc(C2CCN(c3ncnc(Nc4ccc(S(C)(=O)=O)cc4F)c3[N+](=O)[O-])CC2)n1 [Comparative Example 1, N-(2-fluoro-4-methylsulfonylphenyl)-5-nitro-6-[4-(3-propan-2-yl-1,2,4-oxadiazol-5-yl)piperidin-1-yl]pyrimidine-4-amine, reference compound]
hypoglycemic effect [2]: 13.5% | inhibition at 15 min, 10 µM (CYP1A2): 10.4% | inhibition at 1.5 h, 10 µM (CYP2C9): 24.1% | inhibition at 30 min, 10 µM (CYP3A4): 47.8% | inhibition at 1 h, 10 µM (CYP2D6): 9.84%

CC(C)c1noc(N2CCC(COc3ccc(-c4ccc(S(C)(=O)=O)cc4)nc3)CC2)n1 [Comparative Example 2, 2-(4-methanesulfonylphenyl)-5-({1-[3-(propan-2-yl)-1,2,4-oxadiazol-5-yl]piperidin-4-yl}methoxy)pyridine]
hypoglycemic effect [2]: 15.3%

CN(C)C(=N)NC(=N)N [Comparative Example 3, Metformin]
changes in weights of rats (weight-loss effect) [3]: weight loss was observed for 2 weeks; also recorded: the weight rather increased after 2 weeks | hypoglycemic effect [4]: approximately 22%

CCc1cnc(N2CCC(COc3ccc(C4=CCC(C(=O)N5CCC[C@@H]5CO)CC4)cc3)CC2)nc1 (stereo partly drawn) [Example 118, (4-(4-((1-(5-ethylpyrimidin-2-yl)piperidin-4-yl)methoxy)phenyl)cyclohex-3-enyl)((R)-2-(hydroxymethyl)pyrrolidin-1-yl)methanone]
inhibition at 15 min, 10 µM (CYP1A2): 0% | inhibition at 30 min, 10 µM (CYP2C19): 48.4% | inhibition at 1.5 h, 10 µM (CYP2C9): 29.8% | inhibition at 30 min, 10 µM (CYP3A4): 48.2% | inhibition at 1 h, 10 µM (CYP2D6): 9.42%
